Blank lines part the entries; values can stand above or below the compound they belong to. The source made the active and inactive calls.
Legend:
[1] = inhibitors of Bluetongue virus cytopathic effect, confirmation, arbovirus, BSR cells (AID 1250); type: functional;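 also: protection from viral cytopathic effect measured as cell viability by ATP luminescence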
[2] = C. albicans growth with fluconazole, confirmation, fluorescence, retest (AID 2467); type: functional, cell-based
[3] = target: T1, Nucleotide-binding oligomerization domain-containing protein 1 (Homo sapiens, UniProt Q9Y239); experiment: NOD1 signaling inhibitors, SAR follow-up, revised (AID 2333); type: functional
T1 sequence (Q9Y239 whole entry): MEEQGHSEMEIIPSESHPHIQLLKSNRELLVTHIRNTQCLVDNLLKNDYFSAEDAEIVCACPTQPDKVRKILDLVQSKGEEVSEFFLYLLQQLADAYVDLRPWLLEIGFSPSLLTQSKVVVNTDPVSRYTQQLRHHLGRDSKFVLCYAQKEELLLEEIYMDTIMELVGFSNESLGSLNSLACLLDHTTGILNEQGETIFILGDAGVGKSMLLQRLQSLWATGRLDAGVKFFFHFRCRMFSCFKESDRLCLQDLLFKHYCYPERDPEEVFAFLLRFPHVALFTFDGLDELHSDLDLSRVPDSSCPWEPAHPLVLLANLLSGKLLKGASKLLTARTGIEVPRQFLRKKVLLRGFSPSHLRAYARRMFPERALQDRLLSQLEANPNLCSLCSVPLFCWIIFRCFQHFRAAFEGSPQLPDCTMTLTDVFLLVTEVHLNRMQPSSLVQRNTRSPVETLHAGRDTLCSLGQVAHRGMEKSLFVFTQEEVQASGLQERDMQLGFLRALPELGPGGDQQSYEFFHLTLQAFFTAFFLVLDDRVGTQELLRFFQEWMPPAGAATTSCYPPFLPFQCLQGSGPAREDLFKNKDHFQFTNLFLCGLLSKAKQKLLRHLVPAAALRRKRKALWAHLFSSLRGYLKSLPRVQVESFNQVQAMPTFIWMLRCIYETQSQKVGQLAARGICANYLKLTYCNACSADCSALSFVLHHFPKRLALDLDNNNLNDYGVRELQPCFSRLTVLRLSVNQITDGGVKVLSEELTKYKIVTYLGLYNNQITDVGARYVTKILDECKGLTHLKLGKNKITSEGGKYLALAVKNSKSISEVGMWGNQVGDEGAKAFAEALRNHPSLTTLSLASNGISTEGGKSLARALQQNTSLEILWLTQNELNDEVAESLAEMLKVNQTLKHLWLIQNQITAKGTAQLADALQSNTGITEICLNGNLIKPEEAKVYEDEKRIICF

HEK293 [4] = experiment: cells; type: functional, cell-based; conditions: Homo sapiens
HEK293 [5] = experiment: NOD1 signaling inhibitors, primary screen, cell-based, luminescence, uHTS (AID 1578); type: functional; conditions: Homo sapiens
[6] = HepG2 cell cytotoxicity, dose response, cytotoxicity control for Shn3 inhibitor project, CellTiter-Glo, cherry-picked (AID 624134); type: functional, cell-based
[7] = control 3'UTR Renilla luciferase suppression, dose response, counter-screen for Shn3 inhibitor project, cell-based, Clone20-Shn3RL, cherry-picked (AID 624133); type: functional
HEK293 [8] = experiment: cells; conditions: Homo sapiens
[9] = target: T2, Serine/threonine-protein phosphatase (Candida dubliniensis (strain CD36 / CBS 7987 / NCPF 3949 / NRRLY-17841) (Yeast), UniProt B9W6M3); experiment: calcineurin pathway inhibitors in yeast reporter, dose response, S. cerevisiae, CDRE-lacZ, luminescence, secondary (AID 2388); type: functional, cell-based;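 also: yeast reporter cells carrying a calcineurin-responsive lacZ construct stimulated with calcium chloride; luminescent beta-galactosidase reporter signal in whole cells rather than isolated phosphatase activity; potency for inhibition where a drop in reporter signal means calcineurin blockade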
T2 sequence (B9W6M3 whole entry): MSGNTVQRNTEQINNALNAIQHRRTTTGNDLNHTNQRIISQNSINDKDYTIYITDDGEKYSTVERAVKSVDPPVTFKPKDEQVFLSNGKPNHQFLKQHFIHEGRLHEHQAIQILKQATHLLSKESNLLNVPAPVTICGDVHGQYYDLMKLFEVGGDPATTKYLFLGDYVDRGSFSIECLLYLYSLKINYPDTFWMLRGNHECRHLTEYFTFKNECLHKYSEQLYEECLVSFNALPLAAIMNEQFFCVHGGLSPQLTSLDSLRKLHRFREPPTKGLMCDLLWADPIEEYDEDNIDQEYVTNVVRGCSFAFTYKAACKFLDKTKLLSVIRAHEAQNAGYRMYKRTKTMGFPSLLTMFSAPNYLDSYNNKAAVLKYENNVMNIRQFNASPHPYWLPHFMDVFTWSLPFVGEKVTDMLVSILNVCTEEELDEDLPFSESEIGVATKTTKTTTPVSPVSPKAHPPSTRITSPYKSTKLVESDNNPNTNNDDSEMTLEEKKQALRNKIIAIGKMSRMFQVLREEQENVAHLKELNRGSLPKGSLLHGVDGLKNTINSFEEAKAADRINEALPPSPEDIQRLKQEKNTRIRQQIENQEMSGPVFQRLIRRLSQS

[10] = target: Nucleotide-binding oligomerization domain-containing protein 2 (Homo sapiens, UniProt Q9HC29); experiment: NOD2 signaling inhibitors, cell-based, luminescence, uHTS, HEK293 (AID 1566); type: functional
HEK293 [11] = experiment: cells; type: functional, cell-based; conditions: Homo sapiens; remark: listed apart in the source
HEK293 [12] = experiment: cells; type: functional, cell-based; conditions: Homo sapiens; remark: listed apart in the source
[13] = target: ATP-dependent molecular chaperone HSP82 (Candida albicans (strain WO-1) (Yeast), UniProt C4YTQ8); experiment: loss of DOC-induced GRE-beta-galactosidase reporter signal, dose response, Hsp90 inhibitor project, S. cerevisiae, luminescence (AID 2400); type: functional, cell-based;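 also: beta-galactosidase luminescence from glucocorticoid response element reporter as proxy for Hsp90 function; inhibitor potency where signal loss means Hsp90 inhibition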
Tumor necrosis factor = Tumor necrosis factor (Homo sapiens, UniProt P01375); experiment: TNFa-triggered NF-kB activation inhibitors, SAR follow-up, cell-based, revised (AID 2337); type: functional
HEK293 [14] = experiment: NOD2 signaling inhibitors in MDP-stimulated cells, cell-based, uHTS, luminescence (AID 2001); type: functional; conditions: Homo sapiens
[15] = NIH-3T3 fibroblast cytotoxicity, dose response, cytotoxicity control, cell-based, fluorescence, Alamar Blue, secondary assay (AID 2327); type: functional;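 also: NIH-3T3 mouse fibroblasts cultured with fluconazole at 8 µg/mL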
[16] = Shn3 3'UTR reporter inhibitors, dose response, cell-based, Clone20 osteoblasts, firefly luciferase, cherry-picked (AID 624132); type: functional;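 also: firefly luciferase luminescence from reporter carrying the Shn3 3'UTR in osteoblasts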
[17] = cytotoxicity in HEK-293T cells, dose response, cytotoxicity control for TCR NF-kB inhibitor project, luminescence, T-cell screen hits (AID 489026); type: functional, cell-based;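 also: cells exposed to compound about 14 hours before the viability readout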
[18] = target: T3, Calpain-2 catalytic subunit (Sus scrofa, UniProt P43367); experiment: pig calpain II inhibitor potency, dose response, biochemical, fluorogenic peptide substrate (AID 1420); type: functional
T3 sequence (P43367 whole entry): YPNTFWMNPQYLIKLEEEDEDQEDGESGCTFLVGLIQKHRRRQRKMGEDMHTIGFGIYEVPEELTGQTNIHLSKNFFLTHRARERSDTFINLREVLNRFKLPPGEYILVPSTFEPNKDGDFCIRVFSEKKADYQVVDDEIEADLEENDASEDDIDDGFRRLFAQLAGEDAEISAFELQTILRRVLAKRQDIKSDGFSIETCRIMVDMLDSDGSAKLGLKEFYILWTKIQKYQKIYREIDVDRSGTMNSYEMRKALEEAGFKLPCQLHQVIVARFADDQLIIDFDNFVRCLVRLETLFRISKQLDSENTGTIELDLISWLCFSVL

[19] = target: T4, Corticotropin-releasing factor receptor 2/Corticotropin-releasing factor-binding protein (Homo sapiens, UniProt P24387+Q13324); experiment: Dose Response confirmation of uHTS hits for small molecule antagonists of the CRF-binding protein and CRF-R2 receptor complex.; type: functional; conditions: read-out: IC50_Mean
T4 sequence (Q13324 whole entry): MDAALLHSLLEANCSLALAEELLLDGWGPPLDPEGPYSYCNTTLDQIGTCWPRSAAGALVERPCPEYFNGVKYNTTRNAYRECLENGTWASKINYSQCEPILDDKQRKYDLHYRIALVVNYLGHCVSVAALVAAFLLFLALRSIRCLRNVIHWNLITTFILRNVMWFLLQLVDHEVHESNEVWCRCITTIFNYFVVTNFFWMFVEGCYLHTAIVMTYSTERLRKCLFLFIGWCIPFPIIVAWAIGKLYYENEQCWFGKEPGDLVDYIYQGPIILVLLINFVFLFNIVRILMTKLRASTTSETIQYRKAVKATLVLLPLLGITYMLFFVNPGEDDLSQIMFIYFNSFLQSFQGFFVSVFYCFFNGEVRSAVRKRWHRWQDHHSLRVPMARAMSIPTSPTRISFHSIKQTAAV
T4 sequence (P24387 whole entry): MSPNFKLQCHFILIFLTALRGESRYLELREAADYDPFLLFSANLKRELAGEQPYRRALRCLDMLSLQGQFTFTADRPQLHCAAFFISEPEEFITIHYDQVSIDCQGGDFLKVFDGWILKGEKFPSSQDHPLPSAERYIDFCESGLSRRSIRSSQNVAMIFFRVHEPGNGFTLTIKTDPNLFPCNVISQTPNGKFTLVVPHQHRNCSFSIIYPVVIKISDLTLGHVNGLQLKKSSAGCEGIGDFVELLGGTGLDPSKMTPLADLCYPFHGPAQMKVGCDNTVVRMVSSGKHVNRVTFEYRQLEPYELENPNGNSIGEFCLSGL

[20] = target: T4, Corticotropin-releasing factor receptor 2/Corticotropin-releasing factor-binding protein; experiment: activators of CRF receptor 2 with binding protein – uHTS hits, confirmation (AID 602473); type: functional; conditions: read-out: EC50_Mean
Leucine aminopeptidase = target: T5, Leucine aminopeptidase (Plasmodium falciparum 3D7, UniProt Q8IL11); experiment: P. falciparum M17LAP inhibitors, primary screen, biochemical, fluorogenic H-Leu-NHMec substrate, 1536-well (AID 1619); type: functional
T5 sequence (Q8IL11 whole entry): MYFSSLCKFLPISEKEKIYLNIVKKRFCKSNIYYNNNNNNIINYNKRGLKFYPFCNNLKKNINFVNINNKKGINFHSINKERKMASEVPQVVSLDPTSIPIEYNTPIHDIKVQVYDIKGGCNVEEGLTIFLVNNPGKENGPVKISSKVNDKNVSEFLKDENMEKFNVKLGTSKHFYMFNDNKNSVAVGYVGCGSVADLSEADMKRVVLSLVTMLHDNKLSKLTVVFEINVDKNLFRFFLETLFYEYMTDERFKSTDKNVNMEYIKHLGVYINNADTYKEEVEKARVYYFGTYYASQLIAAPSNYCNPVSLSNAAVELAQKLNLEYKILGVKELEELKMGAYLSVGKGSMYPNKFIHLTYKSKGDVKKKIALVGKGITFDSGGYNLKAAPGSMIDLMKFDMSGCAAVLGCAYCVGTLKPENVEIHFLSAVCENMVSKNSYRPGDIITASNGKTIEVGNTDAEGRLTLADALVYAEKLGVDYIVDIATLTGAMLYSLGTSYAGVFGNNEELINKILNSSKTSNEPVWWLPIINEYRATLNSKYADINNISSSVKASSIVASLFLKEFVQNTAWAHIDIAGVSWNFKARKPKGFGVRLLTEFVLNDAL

Procathepsin L = Procathepsin L (Homo sapiens, UniProt P07711); experiment: cathepsin L inhibitors, dose response, counter-screen for M1/M17 aminopeptidase inhibitor project, biochemical, QFRET, 1536-well (AID 2214)
Aspartyl aminopeptidase = target: T6, Aspartyl aminopeptidase (Plasmodium falciparum 3D7, UniProt Q8I2J3); experiment: Counterscreen for inhibitors of M1 and M17 aminopeptidases: QFRET-based biochemical high throughput dose response assay for inhibitors of the Plasmodium falciparum M18 Aspartyl Aminopeptidase (PFM18AAP). [Related PubChem assays: 1619 (Screening assay (M17LAP inhibitors).), 1445 (Screening assay (M1AAP inhibitors).)]
T6 sequence (Q8I2J3 whole entry): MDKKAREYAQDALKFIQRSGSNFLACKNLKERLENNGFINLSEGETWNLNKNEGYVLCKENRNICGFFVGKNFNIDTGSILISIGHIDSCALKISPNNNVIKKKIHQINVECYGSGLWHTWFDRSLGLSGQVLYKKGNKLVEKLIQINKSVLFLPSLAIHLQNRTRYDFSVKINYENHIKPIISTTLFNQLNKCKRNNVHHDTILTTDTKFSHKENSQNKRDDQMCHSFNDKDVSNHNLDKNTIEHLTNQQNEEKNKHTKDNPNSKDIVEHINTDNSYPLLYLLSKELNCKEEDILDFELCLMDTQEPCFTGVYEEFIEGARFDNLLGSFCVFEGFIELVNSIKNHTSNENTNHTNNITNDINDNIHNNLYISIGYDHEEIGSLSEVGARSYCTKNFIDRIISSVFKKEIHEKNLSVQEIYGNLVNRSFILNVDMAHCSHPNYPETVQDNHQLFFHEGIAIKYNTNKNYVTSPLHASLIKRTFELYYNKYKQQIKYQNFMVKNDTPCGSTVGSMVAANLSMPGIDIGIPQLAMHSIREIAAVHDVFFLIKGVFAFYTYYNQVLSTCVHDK

Sequence of Tumor necrosis factor (P01375 whole entry): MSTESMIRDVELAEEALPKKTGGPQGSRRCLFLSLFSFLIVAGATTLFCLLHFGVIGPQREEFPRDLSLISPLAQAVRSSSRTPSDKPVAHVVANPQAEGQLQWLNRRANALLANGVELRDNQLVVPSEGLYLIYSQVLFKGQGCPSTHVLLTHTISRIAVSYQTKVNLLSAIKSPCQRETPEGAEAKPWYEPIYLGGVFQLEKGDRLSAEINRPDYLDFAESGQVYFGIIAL
Sequence of Procathepsin L (P07711 whole entry): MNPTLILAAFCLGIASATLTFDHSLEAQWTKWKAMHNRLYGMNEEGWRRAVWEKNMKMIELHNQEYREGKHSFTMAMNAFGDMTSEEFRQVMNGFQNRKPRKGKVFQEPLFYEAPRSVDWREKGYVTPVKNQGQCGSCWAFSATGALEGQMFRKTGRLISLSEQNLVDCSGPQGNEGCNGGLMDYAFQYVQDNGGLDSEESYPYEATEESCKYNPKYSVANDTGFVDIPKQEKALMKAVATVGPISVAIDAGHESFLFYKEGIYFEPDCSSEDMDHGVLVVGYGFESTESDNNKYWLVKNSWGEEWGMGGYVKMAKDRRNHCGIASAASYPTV
Sequence of Nucleotide-binding oligomerization domain-containing protein 2 (Q9HC29 whole entry, the tested form may be a part): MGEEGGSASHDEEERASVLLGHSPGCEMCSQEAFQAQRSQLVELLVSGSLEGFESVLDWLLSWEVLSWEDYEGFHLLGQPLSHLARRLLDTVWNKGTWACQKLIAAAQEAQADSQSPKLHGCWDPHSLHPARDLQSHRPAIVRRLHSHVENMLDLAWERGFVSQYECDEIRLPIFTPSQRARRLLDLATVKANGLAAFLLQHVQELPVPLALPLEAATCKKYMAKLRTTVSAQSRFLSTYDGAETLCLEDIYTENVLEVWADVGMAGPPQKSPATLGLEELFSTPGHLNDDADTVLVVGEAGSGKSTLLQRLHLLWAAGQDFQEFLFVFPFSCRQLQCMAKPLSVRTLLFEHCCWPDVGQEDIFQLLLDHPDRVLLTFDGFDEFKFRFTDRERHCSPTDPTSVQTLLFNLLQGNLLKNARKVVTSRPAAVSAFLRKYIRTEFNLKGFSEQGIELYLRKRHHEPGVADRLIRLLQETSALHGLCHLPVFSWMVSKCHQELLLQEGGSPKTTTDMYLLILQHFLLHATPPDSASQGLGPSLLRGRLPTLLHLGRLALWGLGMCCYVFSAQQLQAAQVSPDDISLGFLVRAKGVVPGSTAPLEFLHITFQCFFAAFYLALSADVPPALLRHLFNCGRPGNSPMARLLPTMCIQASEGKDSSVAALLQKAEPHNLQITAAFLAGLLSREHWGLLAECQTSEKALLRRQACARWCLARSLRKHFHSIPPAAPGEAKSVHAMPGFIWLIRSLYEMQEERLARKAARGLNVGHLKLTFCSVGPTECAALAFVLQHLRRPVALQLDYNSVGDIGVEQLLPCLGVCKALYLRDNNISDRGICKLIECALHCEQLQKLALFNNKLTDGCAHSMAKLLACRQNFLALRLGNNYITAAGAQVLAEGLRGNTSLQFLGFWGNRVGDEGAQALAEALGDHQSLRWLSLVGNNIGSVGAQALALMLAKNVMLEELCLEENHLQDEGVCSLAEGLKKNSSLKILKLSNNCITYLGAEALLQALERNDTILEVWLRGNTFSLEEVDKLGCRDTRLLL
Sequence of ATP-dependent molecular chaperone HSP82 (C4YTQ8 whole entry): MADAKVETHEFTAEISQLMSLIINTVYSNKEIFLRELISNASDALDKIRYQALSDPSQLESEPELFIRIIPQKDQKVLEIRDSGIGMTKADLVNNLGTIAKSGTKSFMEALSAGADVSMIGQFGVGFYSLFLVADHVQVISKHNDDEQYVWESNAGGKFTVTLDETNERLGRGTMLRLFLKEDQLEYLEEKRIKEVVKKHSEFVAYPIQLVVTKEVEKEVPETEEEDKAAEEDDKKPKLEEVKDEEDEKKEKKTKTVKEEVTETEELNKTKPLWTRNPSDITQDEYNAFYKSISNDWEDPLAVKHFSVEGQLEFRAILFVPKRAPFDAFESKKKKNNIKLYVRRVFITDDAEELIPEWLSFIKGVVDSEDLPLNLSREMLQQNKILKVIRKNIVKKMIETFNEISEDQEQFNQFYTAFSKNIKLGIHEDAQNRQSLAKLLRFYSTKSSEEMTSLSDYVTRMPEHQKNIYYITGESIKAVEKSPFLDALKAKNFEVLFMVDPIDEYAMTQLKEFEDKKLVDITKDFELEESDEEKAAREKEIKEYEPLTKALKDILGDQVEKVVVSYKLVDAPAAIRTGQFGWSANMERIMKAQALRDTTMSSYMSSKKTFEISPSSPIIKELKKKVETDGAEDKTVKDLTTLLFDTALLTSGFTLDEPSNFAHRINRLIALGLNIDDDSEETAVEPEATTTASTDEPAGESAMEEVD

IC50 [1]: 29 µM (active)
Compound: CC1CCCCN1c1nnc(NC(=O)c2cc(-c3ccc(Br)cc3)on2)s1 (stereo unspecified)

Compound: O=C(c1ccc(Cn2c(=S)[nH]c3ccccc3c2=O)cc1)N1CCN(c2ccccn2)CC1
EC50 [2]: 0.549 µM (active)
IC50 [3]: 5.3 µM (active)
IC50 (HEK293 [4]): 6.05 µM (active)
EC50 (HEK293 [5]): 9 µM (active)
AC50 [6]: 59.2 µM (active)
AC50 [7]: 31.4 µM (active)
IC50 (HEK293 [8]): 12.6 µM (active)
EC50 [9]: > 180 µM (inactive)
EC50 [10]: 5.49 µM (active)
IC50 (HEK293 [11]): 13.9 µM (active)
IC50 (HEK293 [12]): > 20 µM (inactive)
EC50 [13]: > 150 µM (inactive)
IC50 (Tumor necrosis factor): 7.61 µM (active)
IC50 (HEK293 [14]): 7.1 µM (active)
EC50 [15]: 12.4 µM (inconclusive)
AC50 [16]: 6.34 µM (active)

Compound: O=C(Nc1ccc(Oc2cccnc2)nc1)c1ccc(C(F)(F)F)cc1
IC50 [3]: 2.26 µM (active)
IC50 [17]: > 80 µM (inactive)
IC50 (HEK293 [4]): 4.32 µM (active)
EC50 (HEK293 [5]): 2.4 µM (active)
IC50 [18]: 48.1 µM (not active)
IC50 (HEK293 [8]): > 20 µM (inactive)
IC50 [19]: > 47.1 µM (inactive)
IC50 (HEK293 [12]): > 20 µM (inactive)
EC50 [20]: > 53 µM (inactive)
IC50 (Tumor necrosis factor): 2.79 µM (active)
IC50 (HEK293 [14]): 8.57 µM (active)

IC50 (Leucine aminopeptidase): 6.03 µM (active)
IC50 (Procathepsin L): > 59.6 µM (not active)
IC50 (Aspartyl aminopeptidase): > 73.5 µM (not active)
Compound: O=C(CSc1nccc(=O)[nH]1)Nc1ccc(F)c(Cl)c1

From ChEMBL document CHEMBL1201862, “PubChem BioAssay data set” (2004)
